Measured values from article PMC10465592, “Reduced ADP off-rate by the yeast CCT2 double mutation T394P/R510H which causes Leber congenital amaurosis in humans” (Communications Biology, 2023).

Tests used:
[1] = biological target: T1, CCT/TRiC (Saccharomyces cerevisiae); assay: stopped-flow transient kinetics of phosphate release (labelled phosphate-binding protein), burst-phase rates fit to conformational selection; type: biochemical; details: 25 °C, pH 7.5 Tris-HCl, 10 mM MgCl2, 50 mM KCl, 20% glycerol, 1 mM DTT; stronger of two burst phases; read-out: ATP affinity (Kd)
T1 construct: gene CCT2; native complex from yeast cells, two back-to-back rings each of eight distinct subunits CCT1-CCT8; CCT2 mutations introduced in the chromosomal gene

[2] = biological target: T1, CCT/TRiC (Saccharomyces cerevisiae); assay: stopped-flow transient kinetics of phosphate release (labelled phosphate-binding protein), burst-phase rates fit to simple binding; type: biochemical; details: 25 °C, pH 7.5 Tris-HCl, 10 mM MgCl2, 50 mM KCl, 20% glycerol, 1 mM DTT; both burst phases similar; read-out: ATP affinity (Kd)
Text: stopped-flow transient kinetics of phosphate release (labelled phosphate-binding protein), burst-phase rates fit to simple binding on CCT/TRiC (Saccharomyces cerevisiae) | the ATP affinities corresponding to the two burst phases are similar and found to be

## Nc1ncnc2c1ncn2[C@@H]1O[C@H](COP(=O)(O)OP(=O)(O)OP(=O)(O)O)[C@@H](O)[C@H]1O [ATP]
[1]
  Kd: ~27 µM
[2]
  Kd: ~7 µM
